# Laboratory results as given in patent publication US6476039B1, “Ophthalmic composition” (R-Tech Ueno, Ltd., priority 1998, dated 2002).
# What was measured:
# Assay type in all cases: in vivo, rabbit
# [1] = test system: alloxan-induced diabetic rabbits; test: Examination of corneal esthesia (Cochet-Bonnet esthesiometer) in alloxan-induced diabetic rabbits
# Method: (§1) Alloxan monohydrate (Lot No. DLJ5619, M.W. 160.09 Wako Pure Chemical Industries, LTD.) of 80 mg/kg was dissolved in 2 mL of physiological saline, and the solution was administered once intravenously of male Japanese albino rabbits [Std: JW/CSK] (11-week-old) to induce diabetes.
# (§2) Blood glucose was determined once a week on 4 times after administration of alloxan monohydrate: animals having always blood glucose of 300 mg/dL or more were used as diabetic animals in this Experiment.
# (§3) [3-(4-Bromo-2-fluorobenzyl)-7-chloro-2,4-dioxo- 1,2,3,4-tetrahydroquinazolin- 1-yl]acetate, an active ingredient of this invention, having aldose reductase-inhibiting effect was used for preparation of a 0.3% eye drops, and the eye drops were used as the test substance. The vehicle control was the vehicle of the eye drops simply without the active ingredient.
# At the time of intravenous administration of alloxan, the drug was instilled into both eyes at 30 μL/eye four times a day over 4 consecutive weeks. Sixteen eyes of 8 animals in each of the test substance group and the vehicle control group were subjected to the examination of corneal esthesia and the examination of tear secretion as follows.
# One hour after the second instillation on the day of examination, each animal was fixed in a stainless steel fixator (SHIBATA GLASS WORKS). The central part, the most sensitive part, of the cornea was stimulated 10 times in rapid sequence with a pressure by applying at the right angle a 30 mm nylon thread (Toray Nylon Monofilament, Type 100, No.0.6, diameter φ: 0.027mm, cross section s: 0.0129) of the Cochet-Bonnet type esthesiometer (Handaya Co., Ltd.) so that the nylon thread might be bent only slightly (pressure: […], measured by Handaya), and the number of blink reflex was taken as the corneal esthesia value. The examination was performed before, 2 weeks after and 4 weeks after administration of alloxan.
# In both examinations, the test substance group and the vehicle control group were compared with the Williams's test.
# [2] = test system: normal (not diabetic) rabbits; test: Repair of the wound of keratoepithelial detachment in normal rabbits; settings: 0.2% eye drops, 30 μL/eye every 4 hours, area immediately after detachment = 100
# Text: In the Experimental Example 1, the influence in rabbits with alloxan-induced diabetes was investigated, while the influence in normal (not diabetic) rabbits was investigated in this Example.
# Ten-week-old male New Zealand White rabbits (weighing 2.07±0.11 kg: mean weight at the start of the experiment) were acclimation period for 7 days, while the animals were examined for the general signs including diarrhea and body weight, etc., and the anterior ocular segment was also observed. Only animals without any abnormality were used in the experiment.
# Keratoepithelial detachment wounds were prepared as described in the Experimental Example 1.
# The test substance was instilled every 4 hours after the keratoepithelial detachment (the first instillation was made immediately after preparation of the wound of keratoepithelial detachment).
# Twelve hours after the keratoepithelial detachment, the area of the wound was measured, and its relative value was calculated by taking the area of the wound immediately after the keratoepithelial detachment as 100, and the relative value was used to assess the extent of repair. The area of the wound of keratoepithelial detachment was measured as described in the Experimental Example 1. […]
# [3] = test system: alloxan-induced diabetic rabbits; test: Examination of tear secretion (Schirmer's test) in alloxan-induced diabetic rabbits; settings: 1 minute
# Method: as §1, §2, §3
# At the time of intravenous administration of alloxan, the drug was instilled into both eyes at 30 μL/eye four times a day over 4 consecutive weeks. […]
# One hour after the second instillation on the day of examination, each animal was fixed in a stainless steel fixator, and the edge of the Schirmer's test paper (SHOWA YAKUHIN KAKO, Co., Ltd., Lot No.70080) was inserted into the conjunctival sac to cover the ⅓ of the lower eyelid on the ear side. One minute after, the paper was removed, and the length of the moistened part was read from the scale on the paper. […]
# [4] = test system: rabbits with dry eye syndrome induced by trigeminal denervation; test: Keratoepithelial lesion score in rabbits with dry eye syndrome induced by trigeminal denervation
# Text: (§4) Twenty male Japanese albino rabbits [Std:JW/CSK] were used.
# (§5) Urethane (ALDRICH, Lot No.069110Q) was intraperitoneally administered at the dose of 1 g/kg to rabbits of which hair at the head after anesthesia had been shaved.
# (§6) After disinfection of the shaved area, midline incision of the skin was made from the frontal bone to the ear root, and the periosteum and the muscular tissue around the temporal bone and mandibular articular process were detached. After the detachment, a hole of 2×1.5 cm in size was made in the bone from the parietal medial region to the temporal region by using a bone drill (URAWA KOGYO Co., Ltd., MINITOR.C-130) under the surgical microscope (KONAN CAMERA R& I Inc., PMO-50). Then the dura was detached from the cranial bone while cotton was kept inserted between the temporal bone and the dura. After the detachment was made up to the cranial base, detachment was further made toward the medial border of the petrous part of temporal bone in the cranial cavity, to find the trigeminal nerve in the petrous part. Then the dura of about 1 to 2 mm on the nasal side of the semilunar ganglion was incised. After the incision, the two branches of nerve fascicle, i.e. the first branch of the trigeminal nerve (ocular nerve) and the second branch (maxillary nerve), were pulled laterally and cut with corneoscleral scissors. After confirmation of miosis of the ipsilateral eye immediately after the cut, the cotton kept inserted was removed, and the skin at the head was closed with suture. After the operation, an antibiotic (MYCILLIN SOL®: Meiji) was administered intramuscularly at the dose of 0.1 mL/kg.
# (§7) The trigeminal denervation was made only on the left eye side, while the trigeminal denervation on the right eye side or sham operation was not made
# (§8) Two-week acclimation period was allowed to pass after the trigeminal denervation.
# as §3, with “of 0.03% eye drop, 0.1% eye drop, and” for “of a”, “eye drop, which” for “eye drops, and the eye drops”, “test substances.” for “test substance.”, “the base” for “the vehicle”
# (§9) From about 2 weeks after the trigeminal denervation, one of the above-mentioned drugs was instilled at the volume of 30 μL/eye four times a day for 2 consecutive weeks. Five eyes of each of the test substance groups and the control group were examined for the basal tear secretion and the keratoepithelial lesion as follows.
# Before the start of instillation (Week 0), and 1 week and 2 weeks after instillation, the lesion was evaluated one hour after the first instillation on the day of examination.
# Each animal was placed in a stainless steel fixator, and given instillation of 50 μL of the mixture of 1% rose bengal and 1% fluorescein, followed by vital staining of the keratoconjunctival epithelium for evaluation of the extent of lesion according to the scoring system shown in Table 5.
# [5] = test system: rabbits with dry eye syndrome induced by trigeminal denervation; test: Basal tear secretion in rabbits with dry eye syndrome induced by trigeminal denervation
# Text: as §4, §5, §6, §7, §8
# as §3, with “of 0.03% eye drop, 0.1% eye drop, and” for “of a”, “eye drop, which” for “eye drops, and the eye drops”, “test substances.” for “test substance.”, “the base” for “the vehicle”
# as §9
# Before the start of instillation (Week 0), and 1 week and 2 weeks after instillation, the basal tear secretion was measured one hour after the second instillation on the day of examination.
# Keratoconjunctiva was anesthetized by instillation of 4% lidocaine (Xylocaine® 4% for ophthalmology: Fujisawa Pharmaceutical Co., Ltd.), and the eye drop and the tear around the eyelid were wiped off about 5 minutes later.
# When loss of keratoconjunctival esthesia was confirmed with the Cochet-Bonnet type esthesiometer, the edge of the Shirmer's test paper was kept inserted into the conjunctival sac for 5 minutes, and the length of the moistened part was read from the scale on the paper.
# The basal tear secretion was expressed by the mean per minute calculated from the 4-minute-value obtained by subtraction of the first-1-minute-value from the 5-minute-value of the Shirmer's test, so that the volume of the tear considered to be retained in the conjunctival sac might be excluded.
# [6] = test system: alloxan-induced diabetic rabbits; test: Repair of the wound of keratoepithelial detachment in alloxan-induced diabetic rabbits; settings: 0.1% eye drop, 30 μL/eye every 4 hours, area immediately after detachment = 100, mean±S.E.
# Method: Alloxan monohydrate (Lot No. DLJ5619, M.W. 160.09: Wako Pure Chemical Industries, LTD.) of 80 mg/kg was dissolved in 2 mL of physiological saline, and the solution was administered once intravenously of male Japanese albino rabbits [Std: JW/CSK] (11-week-old) to induce diabetes.
# Blood glucose was determined weekly after administration of alloxan monohydrate: the mean blood glucose was increased from 142.2±4.7 mg/dL (mean±S.E.; The same is applicable hereinafter.) before administration to 522.5±13.7 mg/dL at 1 week, and this elevated level persisted thereafter. Animals with this alloxan-induced diabetes were used in the experiment. […]
# The cornea was stained with fluorescein, and photographs of the anterior ocular segment were taken with the Medical Nikkor Lens attached with a yellow filter (Kodak WRATTEN No.12) and the front part of the flash attached with a blue filter (Kodak WRATTEN No.47). On the projected photographs magnified to the same degree, the stained area was measured with the planimeter. […]
# Twelve hours after the keratoepithelial detachment, the area of the wound was measured. Then its relative value was calculated by taking the area of the wound immediately after the keratoepithelial detachment as 100. […]
# [7] = after 4 weeks, 0.3% eye drops, 30 μL/eye four times a day
# [8] = before alloxan (baseline), 0.3% eye drops group
structure (smiles),measurement,setting,value
"O=C(O)Cn1c(=O)n(Cc2ccc(Br)cc2F)c(=O)c2ccc(Cl)cc21 [compound of the formula (II), [3-(4-bromo-2-fluorobenzyl)-7-chloro-2,4-dioxo-1,2,3,4-tetrahydroquinazolin-1-yl]acetate]",Corneal esthesia value (number of blink reflex on 10 stimulations),"[1]; after 2 weeks, 0.3% eye drops, 30 μL/eye four times a day",5.3 ± 0.7 number of times
same,Corneal esthesia value (number of blink reflex on 10 stimulations),[1]; [7],5.1 ± 0.6 number of times
same,Corneal esthesia value (number of blink reflex on 10 stimulations),[1]; [8],5.6 ± 0.3 number of times
same,Relative area of wound of keratoepithelial detachment 12 hours after keratoepithelial detachment,[2],80.8 ± 2.0 %
same,tear secretion (Schirmer's test),[3]; [7],7.1 ± 0.4 mm
same,tear secretion (Schirmer's test),[3]; [8],8.3 ± 0.6 mm
same,Keratoepithelial lesion,"[4]; 0.03% eye drop group, before instillation (baseline), score 0-4 by stained area (Table 5)",2.8 ± 0.4 score
same,Keratoepithelial lesion,"[4]; 0.03% eye drop, four times a day, week 1, score 0-4 (Table 5)",0.5 ± 0.4 score
same,Keratoepithelial lesion,"[4]; 0.03% eye drop, four times a day, week 2, score 0-4 (Table 5)",0.2 ± 0.1 score
same,Keratoepithelial lesion,"[4]; 0.1% eye drop group, before instillation (baseline), score 0-4 (Table 5)",3.0 ± 0.6 score
same,Keratoepithelial lesion,"[4]; 0.1% eye drop, four times a day, week 1, score 0-4 (Table 5)",0.4 ± 0.2 score
same,Keratoepithelial lesion,"[4]; 0.1% eye drop, four times a day, week 2, score 0-4 (Table 5)",0.4 ± 0.2 score
same,Keratoepithelial lesion,"[4]; 0.3% eye drop group, before instillation (baseline), score 0-4 (Table 5)",3.0 ± 0.5 score
same,Keratoepithelial lesion,"[4]; 0.3% eye drop, four times a day, week 1, score 0-4 (Table 5)",0.5 ± 0.4 score
same,Keratoepithelial lesion,"[4]; 0.3% eye drop, four times a day, week 2, score 0-4 (Table 5)",0.1 ± 0.1 score
same,Basal tear secretion,"[5]; 0.03% eye drop group, before instillation (baseline)",0.38 ± 0.09 mm/minute
same,Basal tear secretion,"[5]; 0.03% eye drop, 30 μL/eye four times a day, week 1",0.92 ± 0.17 mm/minute
same,Basal tear secretion,"[5]; 0.03% eye drop, 30 μL/eye four times a day, week 2",1.02 ± 0.09 mm/minute
same,Basal tear secretion,"[5]; 0.1% eye drop group, before instillation (baseline)",0.38 ± 0.13 mm/minute
same,Basal tear secretion,"[5]; 0.1% eye drop, 30 μL/eye four times a day, week 1",1.24 ± 0.14 mm/minute
same,Basal tear secretion,"[5]; 0.1% eye drop, 30 μL/eye four times a day, week 2",1.12 ± 0.11 mm/minute
same,Basal tear secretion,"[5]; 0.3% eye drop group, before instillation (baseline)",0.34 ± 0.10 mm/minute
same,Basal tear secretion,"[5]; 0.3% eye drop, 30 μL/eye four times a day, week 1",1.24 ± 0.16 mm/minute
same,Basal tear secretion,"[5]; 0.3% eye drop, 30 μL/eye four times a day, week 2",1.20 ± 0.15 mm/minute
same,Relative area of wound of keratoepithelial detachment 12 hours after keratoepithelial detachment,[6],89.0 ± 2.7 %
